Measurements taken from paper PMC12465524, “Cache: Utilizing ultra-large library screening in Rosetta to identify novel binders of the WD-repeat domain of Leucine-Rich Repeat Kinase 2” (Journal of Cheminformatics, 2025).

Experiments:
[1] = molecular target: T1, Leucine-Rich Repeat Kinase 2 (LRRK2) WDR40 domain (Homo sapiens, UniProt Q5S007); assay: SPR (not confirmed by orthogonal assays); type: binding
T1 construct: WDR40 domain
T1 sequence (Q5S007 2142-2527 limits assumed): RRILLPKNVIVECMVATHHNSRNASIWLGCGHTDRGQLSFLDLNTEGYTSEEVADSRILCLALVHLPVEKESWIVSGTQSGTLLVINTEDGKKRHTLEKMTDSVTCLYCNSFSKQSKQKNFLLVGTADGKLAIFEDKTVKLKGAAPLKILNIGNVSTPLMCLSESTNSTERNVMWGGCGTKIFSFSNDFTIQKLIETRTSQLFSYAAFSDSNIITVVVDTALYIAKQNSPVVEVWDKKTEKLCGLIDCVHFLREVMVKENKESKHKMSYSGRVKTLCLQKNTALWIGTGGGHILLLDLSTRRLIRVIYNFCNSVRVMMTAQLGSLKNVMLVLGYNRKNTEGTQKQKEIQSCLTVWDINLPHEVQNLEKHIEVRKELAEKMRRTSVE

[2] = molecular target: T1, Leucine-Rich Repeat Kinase 2 (LRRK2) WDR40 domain; assay: SPR; weak DSF stabilization (ΔTm […] °C); type: binding

Kd [1] [µM] | Kd [2] [µM] | SMILES
59 |  | Cn1nnc(-c2ccccc2)c1CNc1cccc(-n2cnnn2)c1 [A, N-[(1-methyl-4-phenyl-1 H-1,2,3-triazol-5-yl)methyl]-3-(1 H-1,2,3,4-tetrazol-1-yl)-aniline]
35 |  | O=c1[nH]c2ccc(CNc3cccc(-n4cnnn4)c3)cc2[nH]1 [B, compound B]
 | 100 | CSc1ccc(CNc2cccc(-n3cnnn3)c2)cc1 [D, N-[4-(methylsulfanyl)phenyl]methyl-3-(1 H-1,2,3,4-tetrazol-1-yl)aniline]
